58 compounds from patent publication US20250197382A1, “KIF18A INHIBITOR” (WIGEN BIOMEDICINE TECHNOLOGY (SHANGHAI) CO., LTD., priority 2022, published 2025) can be followed below.

Recombinant human KIF18A (1-467His-tagged) protein, sequence (Q8NI77 1-467): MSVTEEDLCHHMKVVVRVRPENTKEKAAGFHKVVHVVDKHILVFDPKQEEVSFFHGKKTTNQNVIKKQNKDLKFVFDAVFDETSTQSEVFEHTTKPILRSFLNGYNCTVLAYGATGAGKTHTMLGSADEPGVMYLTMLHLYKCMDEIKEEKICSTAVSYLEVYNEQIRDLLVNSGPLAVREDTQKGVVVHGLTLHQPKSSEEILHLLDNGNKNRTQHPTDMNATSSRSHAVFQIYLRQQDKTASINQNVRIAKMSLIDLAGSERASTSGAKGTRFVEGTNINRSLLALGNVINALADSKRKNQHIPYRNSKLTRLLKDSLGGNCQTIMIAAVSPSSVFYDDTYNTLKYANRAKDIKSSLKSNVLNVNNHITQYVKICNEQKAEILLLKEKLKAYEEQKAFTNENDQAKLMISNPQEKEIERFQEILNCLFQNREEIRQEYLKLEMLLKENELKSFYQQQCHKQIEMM
Recombinant human KIF18A (1-467His-tagged) protein, sequence (P02550 whole entry partner): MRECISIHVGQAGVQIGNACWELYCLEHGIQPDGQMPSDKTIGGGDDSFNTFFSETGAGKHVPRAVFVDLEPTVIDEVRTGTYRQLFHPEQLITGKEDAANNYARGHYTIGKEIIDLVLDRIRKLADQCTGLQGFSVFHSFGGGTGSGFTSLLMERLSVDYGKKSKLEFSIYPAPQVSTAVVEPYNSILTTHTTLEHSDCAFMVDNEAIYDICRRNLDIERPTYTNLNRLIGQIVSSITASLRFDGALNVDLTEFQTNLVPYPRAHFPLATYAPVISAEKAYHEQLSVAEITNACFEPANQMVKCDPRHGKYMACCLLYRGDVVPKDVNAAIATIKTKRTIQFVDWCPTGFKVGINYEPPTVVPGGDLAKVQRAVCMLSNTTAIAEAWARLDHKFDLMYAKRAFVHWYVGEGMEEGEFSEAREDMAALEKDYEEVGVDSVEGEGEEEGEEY
Recombinant human KIF18A (1-467His-tagged) protein, sequence (P02554 whole entry partner): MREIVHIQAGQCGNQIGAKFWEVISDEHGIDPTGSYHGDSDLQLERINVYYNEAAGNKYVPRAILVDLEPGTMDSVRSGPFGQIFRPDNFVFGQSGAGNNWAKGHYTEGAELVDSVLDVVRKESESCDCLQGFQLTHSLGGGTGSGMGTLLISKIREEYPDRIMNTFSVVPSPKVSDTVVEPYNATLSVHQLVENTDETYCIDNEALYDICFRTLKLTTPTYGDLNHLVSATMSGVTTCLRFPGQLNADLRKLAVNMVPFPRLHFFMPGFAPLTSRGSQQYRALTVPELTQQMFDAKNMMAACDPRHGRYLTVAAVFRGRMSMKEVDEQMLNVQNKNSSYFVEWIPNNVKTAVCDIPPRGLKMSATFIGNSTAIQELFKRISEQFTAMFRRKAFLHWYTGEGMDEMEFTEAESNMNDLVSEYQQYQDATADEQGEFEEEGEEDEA

For the experiment, the target named is Recombinant human KIF18A (1-467His-tagged) protein (Homo sapiens (Human), UniProt Q8NI77). The experiment in a line: KIF18A enzyme assay (microtubule-stimulated ATPase activity, ADP-Glo). The format is biochemical. Conditions: 30 nM KIF18A, ATP 75 μM, read-out: inhibitory activity against KIF18A IC50. The method in brief:
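Baculovirus-expressed human KIF18A (1-467, His-tagged; 30 nM) preincubated 15 min at room temperature with compound (22-point 2-fold series) in pH 7.5 Tris buffer containing 30 μg/mL pig microtubules and 1 μM paclitaxel.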
(In ADP-Glo the light output rises with the ADP produced.)
What is called IC50 is the midpoint of a concentration-inhibition curve. Take `C[C@H](CO)S(=O)(=O)Nc1ccc(C(=O)Nc2cc3c(c(N4CCC(F)(F)CC4)c2)N(C)CC3)c(N2CCC3(CC2)CC3)c1` [Compound 270]: the half-inhibitory concentration (IC50) was no more than 100 nM.

Regarding `C[C@H](CO)NS(=O)(=O)c1ccc(NC(=O)c2cc3c(c(N4CCC(F)(F)CC4)c2)OCC3)c(N2CCC3(CC2)CC3)c1` [Compound 62], the IC50 is no more than 100 nM.

Regarding `C[C@H](CO)NS(=O)(=O)c1ccc(C(=O)Nc2cc3c(c(N4CCO[C@H](C)C4)n2)N(C)CC3)c(N2CCC3(CC2)CC3)c1` [Compound 352], the IC50 is no more than 100 nM. As to `CN1CCc2cc(C(=O)Nc3ccc(NS(=O)(=O)CCO)cc3N3CCC4(CC3)CC4)cc(OC3CCC3)c21` [Compound 295], the half-inhibitory concentration (IC50) was no more than 100 nM. As for `C[C@H]1CN(c2nc(NC(=O)c3ccc(NS(=O)(=O)CCO)cc3N3CCC4(CC3)CC4)cc3c2N(C)CC3)CCO1` [Compound 323], the IC50 was no more than 100 nM.

Regarding `C[C@@H]1CN(c2cc(NC(=O)c3ccc(NS(=O)(=O)[C@H](C)CO)cc3N3CCC4(CC3)CC4)cc3c2N(C)CC3)CCO1` [Compound 272], the IC50 is no more than 100 nM. To `O=C(Nc1cc2c(c(OCCC(F)(F)F)n1)OCC2)c1ccc(S(=O)(=O)NCCO)cc1N1CCC2(CC1)CC2` [Compound 85] belongs no more than 100 nM. With `CN1CCc2cc(C(=O)Nc3ccc(S(=O)(=O)NCCO)cc3N3CCC4(CC3)CC4)cc(N3CCC4(CC4)C3)c21` [Compound 310] the figure was no more than 100 nM; with `CC1(F)CCN(c2nc(C(=O)Nc3ccc(S(=O)(=O)NCCO)cc3N3CCC4(CC3)CC4)cc3c2OCC3)C1` (stereo not shown) [Compound 120], no more than 100 nM. Regarding `C[C@@H]1CN(c2nc(NC(=O)c3ccc(S(=O)(=O)NCCO)cc3N3CCC4(CC3)CC4)cc3ccoc23)CCO1` [Compound 210], the IC50 was no more than 100 nM. Turning to `Cn1ccc2cc(NC(=O)c3ccc(S(=O)(=O)NCCO)cc3N3CCC4(CC3)CC4)cc(N3CC(F)(F)C3)c21` [Compound 404], the IC50 is no more than 100 nM.

With `O=C(Nc1ccc(S(=O)(=O)NCCO)cc1N1CCC2(CC1)CC2)c1cc(N2CC(F)(F)C2)c2occc2c1` [Compound 180], the 50% inhibitory concentration (IC50) is no more than 100 nM.

As for `O=C(Nc1ccc(NS(=O)(=O)CCO)cc1N1CCC2(CC1)CC2)c1cc2ccoc2c(N2CCC(F)(F)CC2)n1` [Compound 225], the half-maximal inhibitory concentration (IC50) is no more than 100 nM. For `C[C@@H](CO)NS(=O)(=O)c1ccc(NC(=O)c2cc3c(c(N4CCC(F)(F)CC4)c2)OCC3)c(N2CCC3(CC2)CC3)c1` [Compound 61], the IC50 is no more than 100 nM. With `C[C@H]1CN(c2cc(NC(=O)c3ccc(S(=O)(=O)NCCO)cc3N3CCC4(CC3)CC4)cc3ccoc23)CCO1` [Compound 147] the figure was no more than 100 nM.

Turning to `C[C@H](CO)NS(=O)(=O)c1ccc(NC(=O)c2cc3c(c(N4CCO[C@H](C)C4)c2)N(C)CC3)c(N2CCC3(CC2)CC3)c1` [Compound 320], the concentration for half-maximal inhibition (IC50) is no more than 100 nM. For the compound `O=C(Nc1cc2nc[nH]c2c(N2CCC(F)(F)CC2)n1)c1ccc(NS(=O)(=O)CCO)cc1N1CCC2(CC1)CC2` [Compound 526], the IC50 is no more than 100 nM. With `Cn1ccc2cc(C(=O)Nc3ccc(NS(=O)(=O)CCO)cc3N3CCC4(CC3)CC4)cc(OC3CCC3)c21` [Compound 423] the figure was no more than 100 nM; with `C[C@@H]1CN(c2nc(NC(=O)c3ccc(NS(=O)(=O)[C@H](C)CO)cc3N3CCC4(CC3)CC4)cc3ccn(C)c23)CCO1` [Compound 464], no more than 100 nM.

`O=C(Nc1ccc(S(=O)(=O)NCCO)cc1N1CCC2(CC1)CC2)c1cc2c(c(OCCC(F)(F)F)n1)OCC2` [Compound 117]: the half-inhibitory concentration (IC50) is no more than 100 nM.

Consider `CN1CCc2cc(C(=O)Nc3ccc(NS(=O)(=O)CCO)cc3N3CCC4(CC3)CC4)nc(NC(C)(C)CO)c21` [Compound 363], for which the IC50 is no more than 100 nM. Consider `Cn1ccc2cc(NC(=O)c3ccc(S(=O)(=O)NCCO)cc3N3CCC4(CC3)CC4)nc(N3CCC(F)(F)CC3)c21` [Compound 465], for which the IC50 was no more than 100 nM. In the case of `O=C(Nc1cc2c(c(N3CC4CC4C3)c1)OCC2)c1ccc(S(=O)(=O)NCCO)cc1N1CCC2(CC1)CC2` (stereo not shown) [Compound 26], the IC50 was no more than 100 nM. To `Cn1ccc2cc(C(=O)Nc3ccc(S(=O)(=O)NCCO)cc3N3CCC4(CC3)CC4)nc(NC(C)(C)CO)c21` [Compound 507] belongs no more than 100 nM; to `O=C(Nc1ccc(S(=O)(=O)NCCO)cc1N1CCC2(CC1)CC2)c1cc2ccoc2c(N2CC(F)(F)C2)n1` [Compound 244], no more than 100 nM; to `CC1(F)CCN(c2cc(NC(=O)c3ccc(NS(=O)(=O)CCO)cc3N3CCC4(CC3)CC4)cc3c2OCC3)C1` (stereo not shown) [Compound 8], no more than 100 nM. Regarding `O=C(Nc1cc2ccoc2c(N2CCC(F)CC2)n1)c1ccc(S(=O)(=O)NCCO)cc1N1CCC2(CC1)CC2` [Compound 217], the half-maximal inhibitory concentration (IC50) is no more than 100 nM. With `CN1CCc2cc(NC(=O)c3ccc(S(=O)(=O)NCCO)cc3N3CCC4(CC3)CC4)cc(N3CC4CC4C3)c21` (stereo not shown) [Compound 282], the IC50 is no more than 100 nM. For the compound `C[C@H](CO)S(=O)(=O)Nc1ccc(C(=O)Nc2cc3ccn(C)c3c(N3CCC(F)(F)CC3)n2)c(N2CCC3(CC2)CC3)c1` [Compound 462], the IC50 was no more than 100 nM. To `O=C(Nc1cc2c(c(N3CCC(F)CC3)c1)OCC2)c1ccc(NS(=O)(=O)CCO)cc1N1CCC2(CC1)CC2` [Compound 9] belongs no more than 100 nM; to `C[C@H](CO)NS(=O)(=O)c1ccc(C(=O)Nc2cc3c(c(N4CCC(F)(F)CC4)c2)OCC3)c(N2CCC3(CC2)CC3)c1` [Compound 30], no more than 100 nM. Take `C[C@@H]1CN(c2nc(NC(=O)c3ccc(NS(=O)(=O)CCO)cc3N3CCC4(CC3)CC4)cc3ccoc23)CCO1` [Compound 194]: the IC50 was no more than 100 nM.

With `C[C@H](CO)S(=O)(=O)Nc1ccc(C(=O)Nc2cc(N3CCC(F)(F)CC3)c3occc3c2)c(N2CCC3(CC2)CC3)c1` [Compound 142], the 50% inhibitory concentration (IC50) is no more than 100 nM. With `C[C@H]1CN(c2nc(C(=O)Nc3ccc(S(=O)(=O)NCCO)cc3N3CCC4(CC3)CC4)cc3c2OCC3)CCO1` [Compound 115], the concentration for half-maximal inhibition (IC50) is no more than 100 nM.

As to `CN1CCc2cc(NC(=O)c3ccc(NS(=O)(=O)CCO)cc3N3CCC4(CC3)CC4)cc(N3CCC4(CC4)C3)c21` [Compound 262], the concentration for half-maximal inhibition (IC50) is no more than 100 nM. As for `Cn1ccc2cc(NC(=O)c3ccc(S(=O)(=O)NCCO)cc3N3CCC4(CC3)CC4)cc(N3CCC(F)(F)CC3)c21` [Compound 401], the half-inhibitory concentration (IC50) is no more than 100 nM. To `C[C@@H](CO)NS(=O)(=O)c1ccc(NC(=O)c2cc3c(c(N4CCC(F)(F)CC4)n2)N(C)CC3)c(N2CCC3(CC2)CC3)c1` [Compound 381] belongs no more than 100 nM; to `O=C(Nc1cc2ccoc2c(OCCC(F)(F)F)n1)c1ccc(NS(=O)(=O)CCO)cc1N1CCC2(CC1)CC2` [Compound 197], no more than 100 nM. For `CN1CCc2cc(C(=O)Nc3ccc(S(=O)(=O)NCCO)cc3N3CCC4(CC3)CC4)nc(N3CC4CC4C3)c21` (stereo not shown) [Compound 378], the IC50 was no more than 100 nM. With `C[C@@H]1CN(c2nc(NC(=O)c3ccc(S(=O)(=O)NCCO)cc3N3CCC4(CC3)CC4)cc3ccn(C)c23)CCO1` [Compound 466] the figure was no more than 100 nM; with `C[C@@H]1CN(c2cc(NC(=O)c3ccc(S(=O)(=O)NCCO)cc3N3CCC4(CC3)CC4)cc3c2OCC3)CCO1` [Compound 18], no more than 100 nM; with `C[C@H](CO)S(=O)(=O)Nc1ccc(NC(=O)c2cc3c(c(N4CCC(F)(F)CC4)c2)N(C)CC3)c(N2CCC3(CC2)CC3)c1` [Compound 302], no more than 100 nM. On to `C[C@@H](CO)S(=O)(=O)Nc1ccc(NC(=O)c2cc(N3CCC(F)(F)CC3)c3c(ccn3C)c2)c(N2CCC3(CC2)CC3)c1` [Compound 429], for which the IC50 was no more than 100 nM. With `C[C@@H]1CN(c2nc(NC(=O)c3ccc(S(=O)(=O)NCCO)cc3N3CCC4(CC3)CC4)cc3c2N(C)CC3)CCO1` [Compound 338] the figure was no more than 100 nM; with `O=C(Nc1cc2c(c(N3CCC(F)(F)CC3)c1)CCC2)c1ccc(NS(=O)(=O)CCO)cc1N1CCC2(CC1)CC2` [Compound 532], no more than 100 nM; with `Cn1ccc2cc(NC(=O)c3ccc(NS(=O)(=O)CCO)cc3N3CCC4(CC3)CC4)nc(OC3CCC3)c21` [Compound 455], no more than 100 nM. `C[C@H](CO)NS(=O)(=O)c1ccc(C(=O)Nc2cc3ccoc3c(N3CCO[C@H](C)C3)n2)c(N2CCC3(CC2)CC3)c1` [Compound 224]: the IC50 is no more than 100 nM. With `O=C(Nc1cc2c(c(N3CC4CC4C3)n1)OCC2)c1ccc(NS(=O)(=O)CCO)cc1N1CCC2(CC1)CC2` (stereo not shown) [Compound 74], the IC50 is no more than 100 nM.

As to `O=C(Nc1cc2ccoc2c(N2CC(F)(F)C2)n1)c1ccc(S(=O)(=O)NCCO)cc1N1CCC2(CC1)CC2` [Compound 212], the IC50 was no more than 100 nM. As for `C[C@@H]1CN(c2nc(NC(=O)c3ccc(NS(=O)(=O)[C@@H](C)CO)cc3N3CCC4(CC3)CC4)cc3c2OCC3)CCO1` [Compound 79], the 50% inhibitory concentration (IC50) is no more than 100 nM. With `C[C@H](CO)NS(=O)(=O)c1ccc(C(=O)Nc2cc3c(c(N4CCO[C@H](C)C4)c2)N(C)CC3)c(N2CCC3(CC2)CC3)c1` [Compound 288], the IC50 is no more than 100 nM. Turning to `O=C(Nc1cc2c(c(N3CC4CC4C3)c1)OCC2)c1ccc(NS(=O)(=O)CCO)cc1N1CCC2(CC1)CC2` (stereo not shown) [Compound 10], the concentration for half-maximal inhibition (IC50) was no more than 100 nM. In the case of `O=C(Nc1ccc(NS(=O)(=O)CCO)cc1N1CCC2(CC1)CC2)c1cc(N2CCC(F)CC2)c2occc2c1` [Compound 169], the half-maximal inhibitory concentration (IC50) was no more than 100 nM.

With `O=C(Nc1ccc(NS(=O)(=O)CCO)cc1N1CCC2(CC1)CC2)c1cc(N2CC3CC3C2)c2occc2c1` (stereo not shown) [Compound 170], the IC50 was no more than 100 nM. As for `Cn1ccc2cc(NC(=O)c3ccc(S(=O)(=O)NCCO)cc3N3CCC4(CC3)CC4)cc(OC3CCC3)c21` [Compound 407], the IC50 was no more than 100 nM. Regarding `O=C(Nc1ccc(S(=O)(=O)NCCO)cc1N1CCC2(CC1)CC2)c1cc2c(c(N3CCC4(CC4)C3)n1)OCC2` [Compound 118], the IC50 is no more than 100 nM. As to `O=C(Nc1cc(N2CC(F)(F)C2)c2occc2c1)c1ccc(NS(=O)(=O)CCO)cc1N1CCC2(CC1)CC2` [Compound 132], the half-inhibitory concentration (IC50) is no more than 100 nM. For `O=C(Nc1cc(N2CCC3(CC3)C2)c2occc2c1)c1ccc(NS(=O)(=O)CCO)cc1N1CCC2(CC1)CC2` [Compound 134], the IC50 is no more than 100 nM.
